Data taken from patent US20260048046A1, “METHOD FOR IMPROVING GROWTH PERFORMANCE IN FEEDLOT CATTLE” (Elanco US Inc., priority 2022, published 2026).

Tested on: beef cattle
Assay: 91-d study: growth performance of beef cattle fed lubabegron
Format: in vivo
Settings: for ADG / DMI / G:F / Unshrunk final BW: 91-d treatment, LS mean
Text: A randomized complete block design was used to evaluate the effect of lubabegron (LUB) on performance over a 91-d period using 336 beef cattle (BW=453±34.5 kg) housed in cattle pen enclosures (CPE). Four LUB treatments were included in the study based on dose: 0.0 (control or CON), 1.38, 5.5, and 22.0 (mg·kg^−1 of DM). Because there was a limited number of CPE (n=8), three sequential cycles (blocks) were required to generate 6 replicates of each dose×sex combination. As such, 112 cattle (56 steers and 56 heifers) were housed concurrently within each cycle across the eight CPE (14 cattle/CPE), with each dose×sex combination being represented by a single CPE/cycle. To assure different frame sizes of cattle were represented, cattle in cycles one and three were large-frame Continental crossbreds, whereas cattle in cycle 2 were medium-frame British crossbreds.
Treatment administration for the three cycles occurred from April through July, August through November, and December through March of 2014 and 2015, respectively. Four weeks before beginning treatments for each cycle (day −28), up to 145 cattle were sourced from a common origin and transported to the study site at the University of California-Davis to be group-housed in single-sexed outdoor pens. The presence of growth-promoting implants was assessed, and any preexisting implants were excised before shipment to the study site to ensure they had been implant-free for a minimum of 28 d before treatments began on day 0. No additional implants were used in these cattle, and they were considered nonimplanted.
On day −8, cattle were screened for abnormal health conditions by a veterinarian and ranked by BW to identify the 56 eligible cattle within each sex that provided the narrowest weight range. The following day (day −7), the 56 cattle selected for study enrollment. within each sex were grouped into sets of four consecutively weight-ranked cattle. Cattle were then randomly allocated to their respective treatment within each weight group and transferred into the CPE. The CPE were randomly assigned to sex and dose treatment before each cycle, and all study personnel were blinded to treatments throughout the duration of the study. All cattle were fed the negative control basal finishing diet (Table 1) for 1 week (days −7 to −1) after being placed into the CPE to allow for acclimation before beginning treatments.
Treatments began on day 0 and cattle in each CPE received their respective treatment for 91 d. Emission measurements began at 0800 hours on day 0 and ended at 0500 hours on day 91, immediately preceding cattle removal from the CPE for final BW measurements and transportation to the commercial slaughter facility.
Cattle had been fed a concentrate-based diet in a commercial setting before arrival at the study site on day −28, at which point they were provided ad libitum access to water and re-acclimated to a concentrate-based diet using a step-up program involving two intermediate diets based on increasing concentrate levels (˜60% and 70%, respectively) and varying proportions of alfalfa and wheat hay. On day −14, cattle were transitioned onto a finishing diet (Table 1) formulated to meet, or exceed, the minimum nutrient requirements for growing beef cattle (NRC, 2000) that was then fed for the remainder of the study. A nonmedicated supplement (i.e., type B feed with a ground corn carrier) was included as 2.5% of the diet DM during acclimation for all cattle from day −14 until the beginning of treatment administration. On day 0, one of four type B supplements were added to the basal diet to provide either 0.0 (CON), 1.38, 5.5, or 22.0 mg·kg^−1 (DM basis) LUB in a type C (i.e., final feed) medicated feed. All type C feeds containing the appropriate concentrations of LUB or CON were prepared at the study site by adding the same proportions of Type B supplement, water, and basal ration in a rotary mixer wagon (Roto-Mix Forage Express, Dodge City, KS). […]

CC(C)(Cc1ccc(Oc2ncccc2C#N)cc1)NC[C@H](O)COc1ccccc1-c1cccs1 [LUB, 2-{4-[2-({(2S)-2-Hydroxy-3-[2-(2-thienyl)phenoxy]propyl}amino)-2-methylpropyl]phenoxy}nicotinonitrile]
Effect of LUB treatment on final BW (91 d, all LUB doses vs CON, P=0.257): not altered
Effect of LUB on DMI (91 d, all LUB doses vs CON, P=0.585): no effect
ADG increase vs. CON (LUB 1.38 mg·kg^−1, 91 d): 11.8%
G:F increase compared with CON (LUB 1.38 mg·kg^−1, 91 d): 8.3%
ADG (LUB 1.38 mg·kg^−1 DM): 1.42 kg
DMI (LUB 1.38 mg·kg^−1 DM): 9.2 kg
G:F (LUB 1.38 mg·kg^−1 DM): 0.156 kg:kg
Unshrunk final BW (LUB 1.38 mg·kg^−1 DM): 583 kg
ADG increase vs. CON (LUB 5.5 mg·kg^−1, 91 d): 9.4%
G:F increase compared with CON (LUB 5.5 mg·kg^−1, 91 d): 9.7%
ADG (LUB 5.5 mg·kg^−1 DM): 1.35 kg
DMI (LUB 5.5 mg·kg^−1 DM): 8.8 kg
G:F (LUB 5.5 mg·kg^−1 DM): 0.158 kg:kg
Unshrunk final BW (LUB 5.5 mg·kg^−1 DM): 582 kg
ADG increase vs. CON (LUB 22.0 mg·kg^−1, 91 d): 12.6%
G:F increase compared with CON (LUB 22.0 mg·kg^−1, 91 d): 13.2%
ADG (LUB 22.0 mg·kg^−1 DM): 1.43 kg
DMI (LUB 22.0 mg·kg^−1 DM): 8.8 kg
G:F (LUB 22.0 mg·kg^−1 DM): 0.163 kg:kg
Unshrunk final BW (LUB 22.0 mg·kg^−1 DM): 582 kg
